We go through three compounds from patent publication US11564899B2, “Therapy for transthyretin-associated amyloidosis” (SOM INNOVATION BIOTECH, S.L., priority 2011, dated 2023).

Format in all cases: biochemical
The target in assay [1] is T1, Recombinant Y78F TTR protein (Homo sapiens, UniProt P02766, Y98F).
T1 construct: made in house
Put plainly: Kinetic turbidity assay of TTR fibril formation. Conditions: Y78F TTR 0.4 mg/mL, RA=100*B/(A+B).
Description: Stocks of compounds assayed as inhibitors were dissolved in DMSO (spectrophotometry grade from Sigma) at 1.5 mM concentration. Working solutions were prepared by diluting the stock solution 1:4 in H2O/DMSO (2:1). In all cases, DMSO concentration was adjusted to 5% (v/v) in the final reaction assay mixture.
The assay comprises two stages, one stage where the Y78F protein is incubated together with the inhibitor during 30 minutes, and a second stage where fibril formation is induced by a change in pH and absorbance is measured along 1.5 h. Briefly, the assay was performed as follows:
First, the following solutions were prepared: Protein Y78F stock: 4 mg/mL in 20 mM phosphate, 100 mM KCl, pH 7.6. Incubation buffer: 10 mM phosphate, 100 mM KCl, 1 mM EDTA, pH 7.6. Dilution buffer: 400 mM sodium acetate, 100 mM KCl, 1 mM EDTA, pH 4.2.
Incubation buffer was then added up to a volume of 100 μL. The plate was incubated at 37° C. in a thermostated microplate reader with orbital shaking 15 s every minute for 30 min. A 100 μL portion of dilution buffer was dispensed to each well, and the mixture was incubated at 37° C. with shaking (15 s every min) in the microplate reader. Absorbance at 340 nm was monitored for 1.5 h at 1 min intervals. Data were collected and analyzed using Microsoft Excel software. All assays were done in duplicate.
After following the general procedure indicated above, time-course curves were obtained, from which the initial rates of fibril formation (V0) were calculated as the slopes of the linear increase of absorbance. […] Data were fitted to equation (1): V0=A+B*e^−C[I] (1), where V0 is the initial rate of fibril formation (in absorbance units per hour, Abs*h^−1), and [I] is the concentration of the inhibitor (μM). Adjustable parameters are A (Abs*h^−1), residual aggregation rate at high concentration of inhibitor; B (Abs*h^−1), amplitude or maximum decrease of initial rate of fibril formation; and C (μM^−1), the exponential constant. A+B is equal to the initial rate of fibril formation under the assay conditions in the absence of inhibitor. […]

Assay [2] has as its target T2, Recombinant V122I TTR protein (Homo sapiens, UniProt P02766, V142I).
T2 construct: made in house
Put plainly: End-point turbidity assay (72 h) with V122I TTR. As to conditions: V122I 0.4 mg/mL. The procedure:
Recombinant V122I TTR protein, which is an amyloidogenic variation of human TTR associated with Familial Amyloid Cardiomyopathy (FAC), was produced by following the same procedure described for the Y78F variant used in Example 1. Plasmid DNA expressing the V122I mutant was prepared by site-directed mutagenesis as reported for Y78F in Dolado et al (supra). but using the following primers: 5′-[…]-3′ and 5′-[…]-3′.
This assay is used for TTR variants with lower amyloidegenicity than the Y78F variant when the kinetic turbidity assay is not sensitive enough for accurate measurements. The procedure followed to test the inhibitors by this end-point assay at 72 h is reported in Dolado et al, (supra). V122I TTR was incubated with the inhibitor under the same conditions described above for the kinetic turbidity assay (Example 1), using V122I protein at a concentration of 0.4 mg/mL and three different concentrations of inhibitor: […], corresponding to 0.5×[protein], 1×[protein], and 3×[protein]. After acid induction (addition of dilution buffer), samples were incubated without shaking for 72 h at 37° C. and then homogenized by mixing to resuspend any fibrils present. Turbidity was measured at 340 nm and normalized to amyloidogenesis in the absence of inhibitor.
The inhibitory potency of the tested compounds was evaluated as the percentage of absorvance reduction of the inhibitor-containing samples when compared with the inhibitor-free control sample.
% Fibril reduction=100×(1-turbidity sample/turbidity blank), where turbidity sample is the turbidity measured in the presence of inhibitor, and turbidity blank is that in the absence of inhibitor.

For assay [3], the system named is plasma TTR tetramer (controls and TTR V30M carriers). Conditions: human plasma (controls and V30M carriers pooled), 4 M urea IEF, relative to non-treated plasma of same donor. Here is the method: The preparations were subjected to native PAGE (5% acrylamide) and the gel band containing TTR was excised and applied to an IEF gel (5% acrylamide). IEF was carried out in semi-denaturing conditions (4 M urea), containing 5% (v/v) ampholytes pH 4-6.5 (GE Healthcare), at 1200 V for 6 hours. Proteins were stained with Coomassie Blue, the gels were scanned and subjected to densitometry using the ImageQuant program (HP Scanjet 4470c, Hewlett Packard). […] A total of 12 plasma samples (5 controls and 7 carriers TTR V30M) were analyzed in 3 IEF gels. For each treatment condition, a minimum of 4 samples from different donors were processed. The ratio of TTR tetramer over Total TTR (TTR tetramer+monomer) was calculated for each plasma sample and represented in FIG. 2.
The increase of the tetramer/total TTR ratio induced by the treatment with test compounds was pooled for all samples and represented in Table 4 as % of stabilization. These values were calculated after normalizing the tetramer/total TTR ratio obtained for each sample, with the ratio obtained for the non-treated plasma of the corresponding individual donor as described below: % stabilization=100×((ratio sample−ratio nt)/ratio nt). Where “ratio sample” is tetramer/total TTR ratio in the presence of compound; and “ratio nt” is tetramer/total TTR ratio of non-treated plasma from same donor.

The mark [4] stands for this setting: inhibitor 0.5x[protein] (3.6 microM).
The mark [5] stands for this setting: inhibitor 1x[protein] (7.2 microM).
Setting [6] is: inhibitor 3x[protein] (21.8 microM).

For `O=C(O)c1cc(-c2ccc(F)cc2F)cc(I)c1O` [Iododiflunisal], in assay [1], the “RA (%) percentage of amyloidosis reduction (reduction of fibril formation rate at high inhibitor concentration)” value came out at 99.8%. For the same compound, the “% Fibril Reduction” value was 83.2% in assay [2] (setting [4]), 85.0% in assay [2] (setting [5]) and 88.2% in assay [2] (setting [6]).

Turning to `O=C(O)c1ccc2nc(-c3cc(Cl)cc(Cl)c3)oc2c1` [Tafamidis, 2-(3,5-dichlorophenyl)-1,3-benzoxazole-6-carboxylic acid], the “RA (%) percentage of amyloidosis reduction (reduction of fibril formation rate at high inhibitor concentration)” value in assay [1] was found to be 99%. In addition, the “% stabilization (average +/− sem) of TTR tetramer” value in assay [3] is recorded as 16.4 +/− 5.49%.

Regarding `Cc1ccc(C(=O)c2cc(O)c(O)c([N+](=O)[O-])c2)cc1` [Tolcapone, 3,4-dihydroxy-4′-methyl-5-nitrobenzophenone], the “RA (%) percentage of amyloidosis reduction (reduction of fibril formation rate at high inhibitor concentration)” value in assay [1] is listed as 85.8%. The “% stabilization (average +/− sem) of TTR tetramer” value in assay [3] is recorded as 29.9 +/− 7.64%. Besides, the “% Fibril Reduction” value in assay [2] (setting [4]) amounted to 79.3%; in assay [2] (setting [5]) it was 84.3%; in assay [2] (setting [6]), 100.0%.
